# Measured values from BindingDB's records for doi:10.1021/jm00073a015 (Institute, 1993).
# Key:
# [1] = Binding affinity against delta opioid receptor from calf frontal cortex.
# [2] = Binding affinity against kappa opioid receptor from calf frontal cortex.
# Mu-type opioid receptor = Mu-type opioid receptor (Bos taurus, UniProt P79350); experiment: ChEBML_136067
# Source text: Binding affinity against mu opioid receptor from calf frontal cortex.
# Chain of Mu-type opioid receptor (P79350 whole entry): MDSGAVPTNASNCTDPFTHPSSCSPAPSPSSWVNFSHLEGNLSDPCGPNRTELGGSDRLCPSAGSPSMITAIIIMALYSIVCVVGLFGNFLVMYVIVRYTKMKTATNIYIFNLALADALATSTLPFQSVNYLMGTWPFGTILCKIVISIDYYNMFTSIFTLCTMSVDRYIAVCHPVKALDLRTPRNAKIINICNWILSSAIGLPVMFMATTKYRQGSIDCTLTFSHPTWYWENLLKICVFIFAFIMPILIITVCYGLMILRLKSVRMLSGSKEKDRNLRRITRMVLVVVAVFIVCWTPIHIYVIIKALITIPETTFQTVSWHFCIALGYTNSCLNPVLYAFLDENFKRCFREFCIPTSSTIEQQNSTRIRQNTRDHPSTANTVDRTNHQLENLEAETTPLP
smiles,measurement,setting,value
CN1CC[C@]23c4c5ccc(O)c4O[C@H]2C(=O)CC[C@@]3(NC(=O)/C=C/c2ccc([N+](=O)[O-])cc2)[C@H]1C5,IC50,[1],0.0035 µM
same,IC50,[2],0.0066 µM
"C[C@@]12Oc3c(O)ccc4c3C13CCN(CC1CC1)C(C4)[C@]3(NC(=O)CCc1ccc([N+](=O)[O-])cc1)CCC2=O (stereo partly drawn) [1N-[4-cyclopropylmethyl-10-hydroxy-13-methyl-14-oxo-(13R,17S)-12-oxa-4-azapentacyclo[9.6.1.01,13.05,17.07,18]octadeca-7(18),8,10-trien-17-yl]-3-(4-nitrophenyl)propanamide]",IC50,[2],0.162 µM
"C[C@@]12Oc3c(O)ccc4c3C13CCN(CC1CC1)C(C4)[C@]3(NC(=O)/C=C/c1ccc([N+](=O)[O-])cc1)CCC2=O (stereo partly drawn) [1N-[4-cyclopropylmethyl-10-hydroxy-13-methyl-14-oxo-(13R,17S)-12-oxa-4-azapentacyclo[9.6.1.01,13.05,17.07,18]octadeca-7(18),8,10-trien-17-yl]-4-(4-nitrophenyl)-(Z)-2-butenamide]",IC50,[1],0.011 µM
same,IC50,[2],0.126 µM
"O=C(C=Cc1ccc([N+](=O)[O-])cc1)N[C@@]12C=CC(=O)[C@@H]3Oc4c(O)ccc5c4C31CCN(CC1CC1)C2C5 (stereo partly drawn) [1N-[4-cyclopropylmethyl-10-hydroxy-14-oxo-(13R,17S)-12-oxa-4-azapentacyclo[9.6.1.01,13.05,17.07,18]octadeca-7(18),8,10,15-tetraen-17-yl]-4-(4-nitrophenyl)-(Z)-2-butenamide]",IC50,[1],0.106 µM
same,IC50,[2],0.011 µM
"O=C(/C=C/c1ccc([N+](=O)[O-])cc1)N[C@@]12CCC(=O)[C@@H]3Oc4c(O)ccc5c4[C@@]31CCN(CC1CC1)[C@@H]2C5 [1N-[4-cyclopropylmethyl-10-hydroxy-14-oxo-(13R,17S)-12-oxa-4-azapentacyclo[9.6.1.01,13.05,17.07,18]octadeca-7(18),8,10-trien-17-yl]-4-(4-nitrophenyl)-(Z)-2-butenamide]",IC50,[1],0.021 µM
same,IC50,[2],0.012 µM
"COc1ccc2c3c1O[C@H]1C(=O)C=C[C@@]4(NC(=O)C=Cc5ccc([N+](=O)[O-])cc5)C(C2)N(CC2CC2)CCC314 (stereo partly drawn) [1N-[4-cyclopropylmethyl-10-methoxy-14-oxo-(13R,17S)-12-oxa-4-azapentacyclo[9.6.1.01,13.05,17.07,18]octadeca-7(18),8,10,15-tetraen-17-yl]-4-(4-nitrophenyl)-(Z)-2-butenamide]",IC50,[1],0.054 µM
same,IC50,[2],0.005 µM
same,IC50,Mu-type opioid receptor,0.0015 µM
"CN1CCC23c4c5ccc(O)c4O[C@@]2(C)C(=O)CC[C@@]3(NC(=O)/C=C/c2ccc([N+](=O)[O-])cc2)C1C5 (stereo partly drawn) [1N-[10-hydroxy-4,13-dimethyl-14-oxo-(13R,17S)-12-oxa-4-azapentacyclo[9.6.1.01,13.05,17.07,18]octadeca-7(18),8,10-trien-17-yl]-4-(4-nitrophenyl)-(Z)-2-butenamide]",IC50,[1],0.051 µM
same,IC50,[2],0.116 µM
"COc1ccc2c3c1O[C@H]1C(=O)C=C[C@@]4(NC(=O)C=Cc5ccc([N+](=O)[O-])cc5)C(C2)N(C)CCC314 (stereo partly drawn) [1N-[10-methoxy-4-methyl-14-oxo-(13R,17S)-12-oxa-4-azapentacyclo[9.6.1.01,13.05,17.07,18]octadeca-7(18),8,10,15-tetraen-17-yl]-4-(4-nitrophenyl)-(Z)-2-butenamide]",IC50,[1],0.046 µM
same,IC50,[2],0.068 µM
